Measurements from ChEMBL document CHEMBL1201862, “PubChem BioAssay data set” (2004).
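These data come from cells grown in 96-well plates and exposed to compound for 48 hours at five concentrations. Abbreviation: GI50, concentration required for 50% inhibition of growth.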 Activity calls are given as the source filed them. Rule as the data show it: active = GI50 up to about 1.1 µM and inactive = higher.

How the values were obtained:
Test in all cases: DTP human tumour cell line panel, 48 h
[1] = tested on: 786-0
[2] = tested on: A549
[3] = tested on: BT-549
[4] = tested on: CAKI-1
[5] = tested on: CCRF-CEM
[6] = tested on: HOP-92
[7] = tested on: IGROV-1
[8] = tested on: KM12
[9] = tested on: NCI-H226
[10] = tested on: NCI-H23
[11] = tested on: NCI/ADR-RES
[12] = tested on: OVCAR-4
[13] = tested on: RPMI-8226
[14] = tested on: SF-268
[15] = tested on: SNB-75
[16] = tested on: SR
[17] = tested on: UACC-257
[18] = tested on: UACC-62
[19] = tested on: UO-31
[20] = tested on: Hs-578T

Row | Compound | GI50 [1] | GI50 [2] | GI50 [3] | GI50 [4] | GI50 [5] | GI50 [6] | GI50 [7] | GI50 [8] | GI50 [9] | GI50 [10] | GI50 [11] | GI50 [12] | GI50 [13] | GI50 [14] | GI50 [15] | GI50 [16] | GI50 [17] | GI50 [18] | GI50 [19] | GI50 [20]
1 | CC(C)CC(=O)NC(C(=O)NC(C(=O)NC(CC(C)C)C(O)CC(=O)NC(C)C(=O)NC(CC(C)C)C(O)CC(=O)O)C(C)C)C(C)C (configuration not stated) | > 100 µM (inactive) | > 100 µM (inactive) | 22.1 µM (inactive) | > 100 µM (inactive) | > 100 µM (inactive) | > 100 µM (inactive) | > 100 µM (inactive) | > 100 µM (inactive) | 0.436 µM (active) | > 100 µM (inactive) | > 100 µM (inactive) | > 100 µM (inactive) | > 100 µM (inactive) | > 100 µM (inactive) | > 100 µM (inactive) | > 100 µM (inactive) | > 100 µM (inactive) | > 100 µM (inactive) | > 100 µM (inactive) | –
2 | [O-][N+]1=C2CCC/C(=N/O)C2(O)C2CCCCC21N1CCOCC1 (configuration not stated) | > 100 µM (inactive) | > 100 µM (inactive) | > 100 µM (inactive) | > 100 µM (inactive) | > 100 µM (inactive) | – | > 100 µM (inactive) | > 100 µM (inactive) | > 100 µM (inactive) | > 100 µM (inactive) | > 100 µM (inactive) | > 100 µM (inactive) | – | > 100 µM (inactive) | > 100 µM (inactive) | > 100 µM (inactive) | > 100 µM (inactive) | > 100 µM (inactive) | > 100 µM (inactive) | > 100 µM (inactive)
3 | Cc1ccc2c(c1)C(=O)N1CCC[C@H]1C=N2 | 27.1 µM (inactive) | 30.7 µM (inactive) | 17.8 µM (inactive) | 15.6 µM (inactive) | 4.02 µM (inactive) | 25.5 µM (inactive) | 14.3 µM (inactive) | 15.5 µM (inactive) | – | 16.5 µM (inactive) | 21.1 µM (inactive) | 19.4 µM (inactive) | 10.1 µM (inactive) | 31.3 µM (inactive) | – | – | 21.9 µM (inactive) | 16.6 µM (inactive) | 5.37 µM (inactive) | 15.3 µM (inactive)
4 | COCOc1cc(OC)c(Br)cc1C/C(=N/O)C(=O)OC | > 100 µM (inactive) | 91.6 µM (inactive) | 70.1 µM (inactive) | 48.8 µM (inactive) | 37.8 µM (inactive) | – | 56.4 µM (inactive) | > 100 µM (inactive) | > 100 µM (inactive) | 90.4 µM (inactive) | 34 µM (inactive) | 52.5 µM (inactive) | – | 39.8 µM (inactive) | 7.6 µM (inactive) | 34.7 µM (inactive) | 46.6 µM (inactive) | 40.6 µM (inactive) | 53.7 µM (inactive) | 15.9 µM (inactive)
5 | O=c1[nH]c(=O)n(C2CC(O)C(CO)O2)cc1C1=NC1 (configuration not stated) | > 100 µM (inactive) | > 100 µM (inactive) | > 100 µM (inactive) | – | – | > 100 µM (inactive) | > 100 µM (inactive) | > 100 µM (inactive) | > 100 µM (inactive) | > 100 µM (inactive) | > 100 µM (inactive) | > 100 µM (inactive) | 50.6 µM (inactive) | > 100 µM (inactive) | 81.3 µM (inactive) | – | > 100 µM (inactive) | > 100 µM (inactive) | > 100 µM (inactive) | > 100 µM (inactive)
6 | O=c1oc2ccccc2n1CCCn1c(=O)oc2ccccc21 | > 100 µM (inactive) | – | > 100 µM (inactive) | > 100 µM (inactive) | > 100 µM (inactive) | – | > 100 µM (inactive) | > 100 µM (inactive) | > 100 µM (inactive) | > 100 µM (inactive) | > 100 µM (inactive) | – | > 100 µM (inactive) | > 100 µM (inactive) | 44.5 µM (inactive) | > 100 µM (inactive) | > 100 µM (inactive) | > 100 µM (inactive) | – | > 100 µM (inactive)
7 | O=C(CCc1cccc(O)c1)NCCc1cccc(O)c1 | > 100 µM (inactive) | > 100 µM (inactive) | > 100 µM (inactive) | > 100 µM (inactive) | > 100 µM (inactive) | > 100 µM (inactive) | > 100 µM (inactive) | > 100 µM (inactive) | > 100 µM (inactive) | > 100 µM (inactive) | > 100 µM (inactive) | > 100 µM (inactive) | – | > 100 µM (inactive) | – | > 100 µM (inactive) | > 100 µM (inactive) | > 100 µM (inactive) | > 100 µM (inactive) | > 100 µM (inactive)
8 | CC(C(N)=O)N(C)C(=O)c1cnc2ccccc2c1 (configuration not stated) | > 100 µM (inactive) | > 100 µM (inactive) | > 100 µM (inactive) | > 100 µM (inactive) | > 100 µM (inactive) | > 100 µM (inactive) | > 100 µM (inactive) | > 100 µM (inactive) | > 100 µM (inactive) | > 10 µM (inactive) | > 100 µM (inactive) | > 100 µM (inactive) | > 100 µM (inactive) | > 10 µM (inactive) | > 100 µM (inactive) | > 100 µM (inactive) | > 100 µM (inactive) | > 100 µM (inactive) | > 100 µM (inactive) | –
